Experimental data published in the SangsterLogP compilation.

Conditions: pH 2.0

Compound | logD
COCON1C(=O)CN(C(C)=O)[C@H]1c1ccc(Cl)cc1Cl | 1.98
CC[C@@H](NS(=O)(=O)c1ccc(C)cc1)C(=O)Oc1ccc2c3c(c(=O)oc2c1)CCCC3 | 3.08
CC(C)N(Cc1nnc(-c2ccc(Cl)cc2)o1)C(=O)[C@@H]1COc2ccccc2O1 | 4.09

Results, then the compound that gave them:

logD | Compound
4.54 | COc1ccc(NC(=O)[C@H](OC(=O)CNC(=O)c2ccc(C)s2)c2ccccc2)cc1Cl
2.41 | CC(=O)N1Cc2ccccc2C[C@H]1C(=O)OCc1ccc(C#N)cc1
4.58 | O=C1[C@@H](CSCc2ccccc2)NC(=S)N1C1CCCCC1
3.32 | COc1ccc(N(CC(=O)N[C@@H]2CCS(=O)(=O)C2)S(=O)(=O)c2ccc(Cl)c(Cl)c2)cc1

Same assay, conditions: pH 5.0

Compound | logD
Cc1c(CN(C)C(=O)[C@@H](C)n2nc(C(F)F)c(Br)c2C)cnn1C | 3.12
CCN(C(=O)COC(=O)/C(=C/c1ccc(Cl)cc1)c1ccc(F)cc1)[C@@H]1CCS(=O)(=O)C1 | 4.95
C[C@H]1C[C@H](NC(=S)NCc2csc3ccccc23)CC(C)(C)C1 | 6.21
CC[C@]1(C)NC(=S)N2N1C(=S)N[C@@]2(C)CC | 2.44
Cc1ccc([N+](=O)[O-])cc1N1C(=O)[C@@H]2[C@@H](C1=O)[C@@H](C(=O)C(C)(C)C)N1N=CC=C[C@H]21 | 3.85
O=C1[C@@H](c2cccc(Br)c2)N(CCC2=CCCCC2)C(=O)CN1C1CCCCC1 | 5.6
Cc1noc(C)c1C(=O)O[C@@H](C)C(=O)Nc1ccc2c(c1)OCCO2 | 2.78
CC1=C(C)C[C@@H]2C(=O)N(c3cccc(Br)c3)C(=O)[C@H]2C1 | 3.93
C[C@@H](Sc1nnnn1-c1ccc(Cl)cc1)C(=O)NCC(=O)Nc1ccc(F)c(F)c1F | 4.52
Cc1cccc(NC(=O)NC(C)C)c1C | 2.7
CCCC1=C(C(=O)OCC)[C@H](c2ccc3c(c2)OCO3)NC(=O)N1 | 3.59
C[C@@H]1CCCCN1C(=O)CCCCC(=O)N1CCCC[C@H]1C | 3.42
CC[C@H](C)NC(=O)NC(C(F)(F)F)C(F)(F)F | 2.84
CCOC(=O)N1CCN(C(=O)c2noc3c2C[C@@H](C(C)(C)C)CC3)CC1 | 4.52
CCOC(=O)C1=C(C)NC(=O)C[C@@H]1c1cc(OC)c(OC)cc1Br | 3.93
O=C(c1sc2cc(Cl)ccc2c1Cl)N1CCN(C(=S)NC[C@H]2CCCO2)CC1 | 4.83
CCCC(=O)NC[C@@H](C)NC(=O)CCC | 1.43
COC(=O)c1c(NC(=O)Cn2nc(C)c([N+](=O)[O-])c2C)sc2c1CC[C@H](C(C)(C)C)C2 | 6.53
O=C1[C@H]2OC[C@H](O2)[C@H]2[C@@H]1[C@@H]1C=C[C@H]2C1 | 1.48
CCc1ccccc1NC(=O)[C@]12CC[C@](C)(C(=O)O1)C2(C)C | 3.31
CCOCCOC(=O)c1ccc(NC(=O)COc2ccc(C)cc2Br)cc1 | 5.36
OCC#CC(O)(c1ccc(F)cc1)c1ccc(F)cc1 | 3.61
O=C1/C(=C/c2ccsc2)SC(=S)N1c1cccc(C(F)(F)F)c1 | 5.8
CSc1ccc(S(=O)(=O)N(CC(=O)NC[C@@H]2CCCO2)c2ccc(C)cc2)cc1 | 4.3
C#CCOc1ccc(C2C3=C(CC(C)(C)CC3=O)OC3=C2C(=O)CC(C)(C)C3)cc1OCC | 4.93

Second part, the compound after the results:

logD | Compound
4.63 | COc1ccc(Oc2c(C(F)(F)F)oc3cc(OC(=O)N4CCOCC4)ccc3c2=O)cc1
3.72 | COC(=O)c1cccc(NC(=O)c2ccc(C)cc2)c1
1.85 | C[C@H](NC(=O)C1CC1)c1ccccc1
5.77 | COc1ccc([C@H]2CC(=O)C3=C(C2)Nc2ccc4ccccc4c2[C@@H]3c2ccc3c(c2)OCO3)cc1
5.53 | O=C(/C=C/c1ccccc1)Nc1cccc(NC(=O)c2cccc(Cl)c2)c1
4.64 | CCNC(=O)/C(=C/c1cn(-c2ccccc2)nc1-c1cccs1)NC(=O)c1ccccc1
5.45 | COc1cc2c(cc1OC)[C@@H](COc1ccc(F)cc1)N(C(=O)/C=C/c1ccccc1)CC2
6.01 | CCOC(=O)c1c(C)nc(SC[C@@]2(O)CCCC[C@@H]2SC)c(C#N)c1-c1ccccc1
4.18 | Cc1ccc(N2C(=O)c3ccccc3N[C@H]2c2cccc([N+](=O)[O-])c2)cc1
3.25 | C[C@@]12CC[C@H]3C[C@]1(C#N)N(C(=O)c1cccc([N+](=O)[O-])c1)C[C@]32C
5.29 | C[C@@H]1C=CC[C@@H]2C(=O)N(c3cccc(C(=O)OCC(=O)c4ccc(Br)cc4)c3)C(=O)[C@H]12
4.04 | COc1cccc(C(=O)N2CCC[C@H](c3ccccc3)C2)c1
5.26 | Cc1ccc(C)c(NC(=O)[C@H]2CC3c4ccccc4C2c2ccccc23)c1

Same assay, conditions: pH 6.5

Compound | logD
O=P(Oc1ccccc1)(Oc1ccccc1)O[C@@H]1C=CS(=O)(=O)C1 | 2.48
CCOC(=O)c1[nH]c(C)c(C(=O)OCC(=O)N2CCc3ccccc32)c1C | 4.47
C[C@@H]1CCCN(c2nc3c(c(=O)n(C)c(=O)n3C)n2CCSc2nc3ccccc3s2)C1 | 5.05
C[C@H]1CCCN(C(=O)COC(=O)COc2cc(Cl)c(Cl)cc2Cl)C1 | 4.97
Cc1ccc2[nH]c3nc(N/N=C/C=C/c4ccco4)nnc3c2c1 | 2.18
Cc1ccc(S(=O)(=O)/N=C2\SC(=CN(C)C)C(=O)N2C2CCCCC2)cc1 | 4.75

Next, values leading:

logD | Compound
4.8 | C[C@@H](CCc1ccccc1)NC(=O)C(=O)NC[C@@H]1COc2ccccc2O1
4.18 | O=C([C@H]1CCCO1)N1CCN(C(=S)Nc2ccc(Oc3ccccc3)cc2)CC1

Same assay, conditions: pH 7.3

logD | Compound
4.21 | CCCCOC(=O)C1=C(C)NC2=C(C(=O)CCC2)[C@H]1c1ccccc1OC
6.95 | CCOC(=O)C1=C(N)n2c(s/c(=C\c3ccc(C(=O)OC)cc3)c2=O)=C(C(=O)OC)C1c1ccc(C(=O)OC)cc1 (configuration not stated)
4.85 | CC[C@@H](SC1=Nc2ccccc2C2=N[C@@H](CC(C)C)C(=O)N12)C(=O)Nc1ccc2c(c1)OCO2
3.65 | O=C1C[C@@H](n2nc(-c3ccccc3)n(-c3ccccc3)c2=S)[C@@H]2CO[C@H]1O2

Same assay, conditions: pH 8.0

logD | Compound
3.75 | COC(=O)CSc1nc(NCC(C)C)nc(N2CCOCC2)n1
5.36 | COc1cc(/C=C/C(=O)Nc2ccc(N3CCCCC3)cc2)ccc1OC(F)F

Same assay, conditions: pH 9.0

logD | Compound
4.26 | CC(=O)Nc1ccc([C@@H]2C(C#N)=C(N)Oc3[nH]nc(-c4cc(C)sc4C)c32)cc1

Same assay, conditions: pH 10.0

logD | Compound
4.53 | CC1=C(C(=O)OC[C@@H]2CCCO2)[C@H](c2cc([N+](=O)[O-])ccc2Cl)C2=C(CC(C)(C)CC2=O)N1
4.22 | COC(=O)C1=C(C)N=C(C)C(C(=O)OC)[C@@H]1c1cccc(Cl)c1 (some centres not stated)
3.79 | CCOC(=O)C1=C(C)NC2=C(C(=O)C[C@H](c3ccc(OC)c(OC)c3)C2)[C@H]1c1ccccc1OC
5.24 | COc1ccc(/N=C/c2ccc(/C=N/c3ccc(OC)cc3)cc2)cc1
4.09 | CCOCc1c(C)cc(C)c([C@@H]2C(C#N)=C(N)Oc3[nH]nc(C)c32)c1C

Same assay, conditions: pH 10.5

logD | Compound
4.69 | CN(C)/C=C/C(=O)c1ccc(C#Cc2ccccc2)cc1
4.42 | COc1cc([C@@H]2C(C#N)=C(N)Oc3[nH]nc(C)c32)ccc1OCc1cccc(F)c1
3.29 | OC[C@@H](O)Cn1c(SCCSc2nc3ccccc3n2C[C@H](O)CO)nc2ccccc21
5.25 | CC(=O)C1=C(C)NC(SCC(=O)c2ccc(Cl)cc2Cl)=C(C#N)[C@@H]1c1cccs1
5.14 | C=CCn1/c(=N/C(=O)c2cc(OC)c(OC)c(OC)c2)sc2cccc(OC)c21
4.93 | CCOc1ccc(N2CN=c3s/c(=C\c4cc(OC)c(OC)cc4[N+](=O)[O-])c(=O)n3C2)cc1
3.81 | Cc1cccc(-n2c(S[C@@H](C)C(N)=O)nnc2-c2cccc(S(=O)(=O)N(C)C)c2)c1
